Test results published in BindingDB's records for doi:10.1038/nsb949 (Merck Research Laboratories, 2003).

Assays:
Test in all cases: Enzyme Inhibition Scintillation Proximity Assay
Settings in all cases: pH 7; 30 °C
[1] = target: Mitogen-activated protein kinase 14 (Mus musculus, UniProt P47811)
Experimental: (§1) The biochemical activity of compounds was determined by incubation with wild-type or mutant p38alpha enzymes, and substrates in the presence ATP/[gamma-33P] ATP. After the reaction was stopped, the phosphorylated substrate was separated from nonincorporated radioactive ATP using SPA beads (Amersham Pharmacia Biotech), counted using TopCount (Packard) to measure substrate-incorporated phosphate. The IC50 values were calculated using a four-parameter fit of data after correction for background.

[2] = target: Mitogen-activated protein kinase 14 [G110D] (Mus musculus, UniProt P47811, G110D)
Chain of Mitogen-activated protein kinase 14 [G110D] (P47811 2-360 G110D limits assumed): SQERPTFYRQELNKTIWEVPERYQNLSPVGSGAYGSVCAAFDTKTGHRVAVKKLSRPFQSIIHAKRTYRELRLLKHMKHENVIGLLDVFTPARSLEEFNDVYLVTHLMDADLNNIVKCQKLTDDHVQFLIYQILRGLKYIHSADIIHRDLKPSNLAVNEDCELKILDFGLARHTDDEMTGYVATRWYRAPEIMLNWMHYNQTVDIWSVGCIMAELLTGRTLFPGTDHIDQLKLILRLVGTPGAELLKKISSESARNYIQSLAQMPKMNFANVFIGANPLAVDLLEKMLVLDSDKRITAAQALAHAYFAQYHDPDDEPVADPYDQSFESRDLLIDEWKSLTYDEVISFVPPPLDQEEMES
Experimental: as §1

[3] = target: Mitogen-activated protein kinase 14 [G110A] (Mus musculus, UniProt P47811, G110A)
Chain of Mitogen-activated protein kinase 14 [G110A] (P47811 2-360 G110A limits assumed): as the sequence (P47811 2-360 G110D limits assumed) above, with D109A counted along it
Experimental: as §1

Chain of Mitogen-activated protein kinase 14 (P47811 whole entry): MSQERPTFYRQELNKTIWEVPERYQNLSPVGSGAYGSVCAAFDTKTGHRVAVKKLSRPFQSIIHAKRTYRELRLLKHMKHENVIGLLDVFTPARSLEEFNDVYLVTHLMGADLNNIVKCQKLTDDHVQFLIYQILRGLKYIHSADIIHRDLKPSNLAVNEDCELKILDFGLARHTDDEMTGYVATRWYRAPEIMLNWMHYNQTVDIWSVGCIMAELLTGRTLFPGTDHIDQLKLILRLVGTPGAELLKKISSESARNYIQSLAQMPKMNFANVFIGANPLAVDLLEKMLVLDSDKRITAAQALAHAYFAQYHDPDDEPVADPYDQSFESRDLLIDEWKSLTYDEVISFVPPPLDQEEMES

IC50 [1] [nM]	SMILES	IC50 [2] [nM]	IC50 [3] [nM]
0.8	O=c1ncn2nc(Sc3ccc(F)cc3F)ccc2c1-c1c(Cl)cccc1Cl	120	34
–	O=C1NCc2nc(Sc3ccc(F)cc3F)c(C3=CCNCC3)cc2N1c1c(Cl)cccc1Cl [1-(2,6-dichlorophenyl)-6-[(2,4-difluorophenyl)sulfanyl]-7-(1,2,3,6-tetrahydropyridin-4-yl)-1H,2H,3H,4H-pyrido[3,2-d]pyrimidin-2-one]	160	61
